A short description of this data set: Human HepG2 cell viability assay in 384 well format. Details: dose 125 nL, time 70.5 hour; cytotoxicity at 70.5 h: concentration not given beside the values. Type of data set: toxicity, cell-based. Particulars: HepG2 cells, read-out: Inhibition.

This is an account of results in ChEMBL document CHEMBL3507680, “University of Dundee, Gates Library screen for HepG2 cell viability”.

Molecules are shown by their SMILES.

In the case of `Cc1nc2cc(CNC(=O)C3CC(=O)N(CCN(C)C)C3)ccc2n1C` (stereo unspecified), the cytotoxicity at 70.5 h is -2.99%. The value for `COCCN(C)C[C@@H]1CN(C(=O)C(C)(C)c2ccccc2)C[C@@H]1CO` was 12.6%; that for `CS(=O)(=O)NC1CCN(Cc2ccc(OCc3ccccn3)cc2)CC1` was -5.51%; that for `Fc1ccccc1-c1cc(N2[C@@H]3CC[C@H]2CNC3)n2nccc2n1` was -3.67%. As for `CCOc1ccccc1CC(=O)N1C[C@@H](C(=O)O)[C@H](c2ccncc2)C1`, the cytotoxicity at 70.5 h was determined as 37.4%. The value for `CCNC(=O)[C@@H]1C[C@@H](NC(=O)c2ccc(C)s2)CN1Cc1ccccn1` was -2.7%; that for `Cc1ncsc1CCn1ccnc1-c1cc2n(n1)CCCNC2` was 5.55%.

Regarding `CN(C)c1ncnc2c1CCN(S(=O)(=O)c1cccc3nsnc13)C2`, the cytotoxicity at 70.5 h is -5.63%.

For `COc1cccc(Cl)c1C(C(=O)O)N1CCC(O)(c2cccnc2)CC1` (stereo unspecified), the cytotoxicity at 70.5 h is -3.34%. The value for `COc1c(F)cc(-c2cccc3c2OC(CN)C3)cc1F` (stereo unspecified) was 0.0982%; that for `CC(c1cn2ncsc2n1)N1Cc2ncccc2C1=O` (stereo unspecified) was -10.3%. The value for `Cc1nc[nH]c1CN1C[C@@H]2CC[C@H](C1)N(C(=O)c1cnn(C)c1)C2` was 7.73%; that for `CCOCCn1nc(C)cc1C(=O)N1CCCC[C@H](N(C)C)C1` was -4.33%; that for `CC(C)n1ccnc1C1CCN(C(=O)c2ccccn2)CC1` was -6.85%. Turning to `Cc1cccc(C(C(=O)NCC2(Cn3nc(C)cc3C)CC2)N(C)C)c1` (stereo unspecified), the cytotoxicity at 70.5 h is -2.42%. Regarding `CCOC(=O)CC1(Nc2nc(C)nc3c2cnn3C)CCCCC1`, the cytotoxicity at 70.5 h was -18%. In the case of `CCCOc1c(CNC2CCSC2)cccc1OC` (stereo unspecified) it was -11.2%; in that of `Cc1cc(C2CCCN2C(=O)CN2CC3(CCNCC3)OC2=O)on1` (stereo unspecified), -5.06%; in that of `COc1ccc2[nH]cc(C(=O)N3CC[C@H](CO)[C@@H](O)C3)c(=O)c2c1`, -6.72%. In the case of `Fc1cccnc1Oc1cc(F)c(CN2CCCC2)c(F)c1` it was -13.4%; in that of `CC(C)n1cnnc1CN(C)Cc1ccoc1`, -2.84%. The value for `O=C1CC(C(=O)N2CCc3sccc3C2)CN1Cc1cccnc1` (stereo unspecified) was 2.13%. Take `CC(C)[C@H](Nc1cc(-c2ccncc2)nc2ccnn12)C(N)=O`: the cytotoxicity at 70.5 h worked out at 6.65%. In the case of `O=C(c1ccc(F)cc1F)N1C[C@H]2CC[C@@H]1CN(Cc1ccccc1)C2` it was -2.62%. With `Cc1nc(CN2CCCC(CCc3ccc(F)c(F)c3)C2)c[nH]1` (stereo unspecified), the cytotoxicity at 70.5 h was 19.5%. In the case of `CCn1cc(CN2CCCC2c2nc(C(C)C)no2)cc1C#N` (stereo unspecified), the cytotoxicity at 70.5 h turned out to be 21%. In the case of `COCc1noc(-c2ccc(N(C)Cc3cn(C)nc3C)nc2)n1` it was -5.15%; in that of `Cc1ccc(C2(CN(C)Cc3c(C)nn(C)c3C)CCNCC2)nc1`, 19.9%; in that of `CCn1ncnc1C(C)Nc1cc(C)c2ccc(SC)cc2n1` (stereo unspecified), -11.1%. In the case of `O=C(c1ccncc1)N1C[C@@H]2CC[C@H](C1)N(C(=O)C1CCCC1)C2` it was 2.1%; in that of `CN1CCC(N(C)C[C@H]2CC[C@@H](Cc3ccc4c(cnn4C)c3)O2)CC1`, -7.57%; in that of `CCO[C@H]1C[C@@H](O)C12CCN(C1CCN(c3ccccc3)CC1)CC2`, -5.15%. In the case of `O=C1CCc2cc(S(=O)(=O)NCc3cc4n(n3)CCNC4)ccc2N1` it was -16.4%; in that of `CC(C)c1nccc(C2CC(=O)Nc3n[nH]c(C4CCC4)c32)n1` (stereo unspecified), 2.19%. In the case of `COc1cccc(N2CCN(Cc3ccc4[nH]ccc4c3)CC2=O)c1`, the cytotoxicity at 70.5 h was -12.1%. For `CCOC(=O)N1CCCC2(CCN(Cc3ccccc3C#N)C2)C1` (stereo unspecified), the cytotoxicity at 70.5 h is -6.46%. The value for `CSCCC(=O)N1CCCC(c2nccn2Cc2ccncc2)C1` (stereo unspecified) was -5.49%. The value for `COc1cc2[nH]c(=O)c(CN3CCC[C@H]3CO)cc2c(OC)c1OC` was 14%.

For the compound `CC(C)c1cc(C(=O)N2C[C@H]3CC[C@@H]2CN(Cc2cccnc2)C3)no1`, the cytotoxicity at 70.5 h is -12.5%. The value for `Cc1cc(NC2CCN(Cc3ccccn3)CC2)n2nc(C)c(C)c2n1` was 0.979%. On to `C(=C\c1ccc(CN2CCCC2)cn1)/c1ccccc1`, for which the cytotoxicity at 70.5 h was determined as 6.88%. In the case of `O=C(NCCC1CN(Cc2cccnc2)CCO1)c1ccsc1` (stereo unspecified) it was 6.62%; in that of `CC(CCc1ncnn1Cc1cccc(Cl)c1)N1CCCC1` (stereo unspecified), -9.23%. The value for `Cc1cc(=O)[nH]c(SC(C)C(=O)N2CCC(c3ncc[nH]3)CC2)n1` (stereo unspecified) was 0.989%. For the compound `Cc1cc(-n2nc(C)nc2-c2cn(CCN)nn2)ccn1`, the cytotoxicity at 70.5 h is -6.15%.

Turning to `Cc1nc(NC2(CN3CCCCC3)CCCCC2)c2cnn(C)c2n1`, the cytotoxicity at 70.5 h was -18.3%. As to `CCc1nc(C)c(CNC(=O)CCCN2CCCCC2)s1`, the cytotoxicity at 70.5 h was -1.08%. Regarding `CC(NC(=O)c1cc(=O)n(C)c(=O)n1C)c1ccccc1-n1cccn1` (stereo unspecified), the cytotoxicity at 70.5 h came to 4.9%. Turning to `CSCC(=O)N[C@H]1CC[C@H](Nc2nccc(-c3ccncc3)n2)C1`, the cytotoxicity at 70.5 h was -0.057%. The value for `CCc1nn(C)c(Cl)c1CN1CCN(c2ccc(C(N)=O)cn2)CC1` was -8.09%. The value for `CNC(=O)CC1COCCN1C(=O)C1(c2ccc(Cl)cc2)CCC1` (stereo unspecified) was 7.35%. As for `CCSc1ncc(CN2CCN(c3ccc(C#N)cc3)C(=O)C2)cn1`, the cytotoxicity at 70.5 h was -8.4%.

For the compound `O=C(c1ccc2occc2c1)N1CCC(C(=O)O)(n2cccn2)CC1`, the cytotoxicity at 70.5 h is -4.27%. In the case of `CN(C)CCn1ccnc1C1CCCN(c2cc(N)ncn2)C1` (stereo unspecified) it was 23.6%. In the case of `Cn1c(CCC(=O)N2CCC3(CCCO3)CC2)nc2cccnc21` it was -9.63%; in that of `c1ccc(COCCN2CCc3[nH]cnc3C2c2ccco2)cc1` (stereo unspecified), -4.41%; in that of `Cc1ccc([C@@H]2CN(C(=O)c3ccoc3C)C[C@H]2NC(=O)C2CC2)cc1`, 30.5%.

As to `Cc1ccc(CN2CC[C@@H](NC(=O)c3cccnc3)[C@H](O)C2)s1`, the cytotoxicity at 70.5 h was -10.7%. On to `Cc1cccc(-c2ncc(CNC(C)CO)cn2)c1` (stereo unspecified), for which the cytotoxicity at 70.5 h amounted to 27.8%. `CCn1c(C2CCNCC2)nn(Cc2ccc(C(=O)NC)o2)c1=O`: the cytotoxicity at 70.5 h was -12.2%. Turning to `CCC(NC1CCN(S(C)(=O)=O)CC1)c1cccs1` (stereo unspecified), the cytotoxicity at 70.5 h is -15.6%.

Consider `Cc1cnc(C(=O)N2CCCC(Cn3cc(CC(C)C)nn3)C2)cn1` (stereo unspecified), for which the cytotoxicity at 70.5 h was -8.09%.

`Cc1cnccc1CN(C)C(=O)c1ccc(Cn2cnnn2)cc1`: the cytotoxicity at 70.5 h worked out at 37.3%. The value for `Nc1ccc(C(=O)N2CCCC(c3nccn3Cc3cscn3)C2)cn1` (stereo unspecified) was -3.06%.

Regarding `CCC(CO)N(Cc1ccccn1)C(=O)c1ccc(=O)[nH]c1` (stereo unspecified), the cytotoxicity at 70.5 h was -4.96%. In the case of `CCn1c(CN2CCCC2)nnc1C1CCN(Cc2ccccn2)CC1` it was 18.4%. For the compound `CCC[C@@H]1CN(c2ncnc3sccc23)C[C@H]1C(=O)O`, the cytotoxicity at 70.5 h was -5.95%.

Regarding `COCc1cc(N(C)Cc2cc(C(C)(C)C)n[nH]2)ncn1`, the cytotoxicity at 70.5 h was -7.91%.

In the case of `Cc1ccc(C(NC(=O)CCCN2CCCCC2)C(=O)O)cc1` (stereo unspecified), the cytotoxicity at 70.5 h is -12.7%.

Turning to `Cc1cc(C)c(Cn2cncn2)cc1CN1CC[C@H](CO)[C@@H](O)C1`, the cytotoxicity at 70.5 h turned out to be 6.21%. On to `COCCN1C[C@H]2CC[C@@H]1CN(C(=O)CCc1c(C)nn(C)c1C)C2`, for which the cytotoxicity at 70.5 h is -3.68%. In the case of `CC(=O)c1cc(C(=O)N2CCC(CC(C)C)C2)c(=O)[nH]c1C` (stereo unspecified), the cytotoxicity at 70.5 h was -12.6%. Regarding `Cc1nc2c(c(N[C@@H](CO)C(N)=O)n1)Cc1ccccc1OC2`, the cytotoxicity at 70.5 h is -9.03%. The value for `CC(=O)c1cccc(CN2CC(Oc3ccccc3C)C2)c1` was -3.39%; that for `Cc1cc(C)n(CCCN(CCN2CCOCC2)Cc2ccco2)n1` was -4.4%; that for `CNC(=O)[C@@H]1C[C@H](n2cc(-c3ccc(CN4CC=CC4)cc3)nn2)CN1` was 27%. In the case of `O=C1CCC2(CCN(c3cccc(C(F)(F)F)n3)CC2)CN1CCO`, the cytotoxicity at 70.5 h was -5.14%. The value for `O=C1CCCN1C1CCCN(CCOc2ccc(F)cc2)C1` (stereo unspecified) was -6.91%. For the compound `CC(C)CN(Cc1ccsc1)C(=O)CCCn1cncn1`, the cytotoxicity at 70.5 h is -0.11%. The value for `CCOC(=O)C1CCCCN1Cc1c[nH]nc1-c1cc2ccccc2o1` (stereo unspecified) was -7.32%; that for `CN1CSC[C@H]1C(=O)N1CCC(CCc2ccccc2)CC1` was -5.84%.

For `Cn1c(N2CC[C@H](O)C2)nc2cc(C(N)=O)ccc21`, the cytotoxicity at 70.5 h is 5.31%. Consider `Cc1cc(C)c2[nH]c(=O)c(CN3CCC(O)(CN(C)C)C3)cc2c1` (stereo unspecified), for which the cytotoxicity at 70.5 h was -15.6%. As to `Cc1nc(CCN2CCCCC2)n(-c2ccc(F)cc2)n1`, the cytotoxicity at 70.5 h was 16.5%. As for `CCOCCc1nc(CCc2ccccc2)n[nH]1`, the cytotoxicity at 70.5 h was -6.03%. The value for `Cc1ccc(C(=O)NCCC2CN(c3cnn(C)c(=O)c3)CCO2)s1` (stereo unspecified) was -3.44%; that for `CCc1ccc(C(=O)N2CC[C@](C)(O)[C@H](C)C2)[nH]1` was -7.19%. The value for `CCOC(=O)CNC(=O)N1CCOC(CCc2ccccc2)C1` (stereo unspecified) was 15.8%; that for `CN(CCCN1CCOCC1)[C@@H]1c2ccccc2C2(CCNCC2)[C@H]1O` was -7.93%. Regarding `Cc1cn2cc(C(=O)NC3CCCN(c4ncccn4)C3)ccc2n1` (stereo unspecified), the cytotoxicity at 70.5 h came out at 1.08%.

Take `CCN1CC(CN(C)Cc2nc(-c3ccc(F)cc3)oc2C)CC1=O` (stereo unspecified): the cytotoxicity at 70.5 h came to 4.29%. In the case of `Cc1cc2[nH]c(=O)oc2cc1S(=O)(=O)N1CCC(N2CCCC2=O)CC1` it was -9.07%; in that of `Cc1nonc1CC(=O)N1CCC2(CCCN(C3CCOCC3)C2=O)C1` (stereo unspecified), -5.27%; in that of `O=C(NN1CCCc2ccccc21)c1c[nH]c(=O)[nH]1`, -7.94%. In the case of `COc1cccc(C(=O)N(C)C(C)c2c(C)n[nH]c2C)c1OC` (stereo unspecified) it was -5.83%; in that of `CCc1nccn1CCCNc1nccc(-c2c(C)nn(C)c2C)n1`, -16.7%.
